From US11168102B1, “Bicyclic heteroaryl compounds and uses thereof” (Revolution Medicines, Inc., priority 2019, dated 2021)

Each compound was assayed on cellular pERK in PC-9 cells (EGFR Ex19Del) (assay: Potency assay: pERK (AlphaLISA SureFire Ultra p-ERK1/2) in PC-9 cells). Details: Homo sapiens, PC-9, 1 h, PC-9 cells (EGFR Ex19Del), 1 hour incubation, AlphaLISA SureFire Ultra p-ERK1/2; read-out: SOS1 pERK IC50.
Assay type: cell-based

SMILES	IC50
COC1(c2cc3c(N[C@H](C)c4cccc(C(F)F)c4F)ncnc3n(C)c2=O)CCS(=N)(=O)CC1 (single isomer, unassigned) [Example 49]	0.0755 µM
CC(=O)N1CC=C(c2cc3c(N[C@H](C)c4cccc(C(C)(F)F)c4F)ncnc3n(C)c2=O)CC1 [Example 1-20]	0.0785 µM
C[C@@H](Nc1ncnc2c1cc(C1=CCS(=O)(=NC#N)CC1)c(=O)n2C)c1cccc(C(F)F)c1F (single isomer, unassigned) [Example 45]	0.0291 µM
C[C@@H](Nc1ncnc2c1cc(C(=O)N1CCC(O)(C(F)(F)F)CC1)c(=O)n2C)c1cccc(C(F)F)c1F [Example 26-50]	0.88 µM
C[C@@H](Nc1ncnc2c1cc(C1=CCN(C3COC3)CC1)c(=O)n2C)c1cccc(C(F)F)c1F [Example 1-22]	0.416 µM
C[C@@H](Nc1ncnc2c1cc(C1CCS(=O)(=NC3COC3)CC1)c(=O)n2C)c1cccc(C(F)F)c1F (stereo partly drawn) [Example 60, 4-[[(1R)-1-[3-(difluoromethyl)-2-fluoro-phenyl]ethyl]amino]-8-methyl-6-[1-(oxetan-3-ylimino)-1-oxo-thian-4-yl]pyrido[2,3-d]pyrimidin-7-one]	0.0231 µM
Cc1nc(N[C@H](C)c2cccc(C(F)F)c2F)c2cc(N3CCOCC3)c(=O)n(C)c2n1 [Example 2-1]	0.112 µM
C[C@@H](Nc1ncnc2c1cc(C(=O)N1CC3(CCOC3)C1)c(=O)n2C)c1cccc(C(F)F)c1F [Example 26-15]	0.256 µM
C[C@@H](Nc1ncnc2c1cc(C1(O)CC3(C1)CS(=O)(=O)C3)c(=O)n2C)c1cccc(C(F)F)c1F [Example 28-4]	0.0837 µM
CC1CN(C(=O)c2cc3c(N[C@H](C)c4cccc(C(F)F)c4F)ncnc3n(C)c2=O)C(C)CO1 (stereo partly drawn) [Example 26-23]	0.275 µM
Cc1nc(N[C@H](C)c2cc(N)cc(C(F)(F)F)c2)c2cc(C3CCNCC3)c(=O)[nH]c2n1 [Example 8, (R)-4-((1-(3-amino-5-(trifluoromethyl)phenyl)ethyl)amino)-2-methyl-6-(piperidin-4-yl)pyrido[2,3-d]pyrimidin-7(8H)-one]	2.13 µM
C[C@@H](Nc1ncnc2c1cc(C1=CCN(CC(F)(F)F)CC1)c(=O)n2C)c1cccc(C(F)F)c1F [Example 1-27]	0.313 µM
Cc1nc(N[C@H](C)c2cccc(C(F)F)c2F)c2cc(C3CCNCC3)c(=O)n(C)c2n1 [Example 1-31]	0.568 µM
C[C@@H](Nc1ncnc2c1cc(-c1ccccc1)c(=O)n2C)c1cccc(C(F)F)c1F [Example 21-13]	0.486 µM
C[C@@H](Nc1ncnc2c1cc(C1CC3(C1)CS(=O)(=O)C3)c(=O)n2C)c1cccc(C(F)F)c1F [Example 33, 6-(4-{[(1R)-1-[3-(difluoromethyl)-2-fluorophenyl]ethyl]amino}-8-methyl-7-oxo-7H,8H-pyrido[2,3-d]pyrimidin-6-yl)-2λ^6-thiaspiro[3.3]heptane-2,2-dione]	0.145 µM
CC(=O)N1CCC(O)(c2cc3c(N[C@H](C)c4cccc(C(F)F)c4F)ncnc3n(C)c2=O)CC1 [Example 28-8]	0.0326 µM
C[C@@H](Nc1ncnc2c1cc(C(=O)N1CCOCC13COC3)c(=O)n2C)c1cccc(C(F)F)c1F [Example 26-35]	0.193 µM
CC(=O)N1CC=C(c2cc3c(N[C@H](C)c4cccc(C(F)(F)F)c4F)ncnc3n(C)c2=O)CC1 [Example 1-24]	0.106 µM
C[C@@H](Nc1ncnc2c1cc(C(=O)N1Cc3cccnc3C1)c(=O)n2C)c1cccc(C(F)F)c1F [Example 26-28]	0.766 µM
CC(=O)N1CC=C(c2cc3c(N[C@H](C)c4cccc(C(F)F)c4F)ncnc3n(C)c2=O)CC1 [Example 1-16]	0.119 µM
C[C@@H](Nc1ncnc2c1cc(C(=O)N1CCCC13CCOCC3)c(=O)n2C)c1cccc(C(F)F)c1F [Example 26-42]	0.194 µM
CC(=O)NC12CC(c3cc4c(N[C@H](C)c5cccc(C(F)F)c5F)ncnc4n(C)c3=O)(C1)C2 [Example 70, N-[3-(4-{[(1R)-1-[3-(difluoromethyl)-2-fluorophenyl]ethyl]amino}-8-methyl-7-oxo-7H,8H-pyrido[2,3-d]pyrimidin-6-yl)bicyclo[1.1.1]pentan-1-yl]acetamide]	0.121 µM

Now from value to compound:

IC50	SMILES
0.0527 µM	CO[C@@]1(c2cc3c(N[C@H](C)c4cccc(C(F)F)c4F)ncnc3n(C)c2=O)CCN(C(C)=O)C1 [Example 32-23]
0.00929 µM	COC1(c2cc3c(N[C@H](C)c4cccc(C(F)F)c4F)ncnc3n(C)c2=O)CCC2(CC1)CS(=O)(=O)C2 [Example 32-4]
0.0054 µM	CO[C@@]1(c2cc3c(N[C@H](C)c4cccc(C(F)F)c4F)ncnc3n(C)c2=O)C[C@@H](C)N(C(C)=O)C1 [Example 32-48]
0.122 µM	C[C@@H](Nc1ncnc2c1cc(C1(F)CN(C)C1)c(=O)n2C)c1cccc(C(F)F)c1F [Example 29-1]
0.0811 µM	C[C@@H](Nc1ncnc2c1cc(C1(F)CCC3(CC1)CS(=O)(=O)C3)c(=O)n2C)c1cccc(C(F)F)c1F [Example 29-7]
0.0816 µM	COC1(c2cc3c(N[C@H](C)c4cccc(C(F)F)c4F)ncnc3n(C)c2=O)CCNC1 (stereo partly drawn) [Example 32-55]
0.0357 µM	COC1(c2cc3c(N[C@H](C)c4cccc(C(F)F)c4F)ncnc3n(C)c2=O)CC2(C1)CS(=O)(=O)C2 [Example 32-5]
0.136 µM	COC1(c2cc3c(C[C@H](C)c4cccc(C(F)F)c4F)ncnc3n(C)c2=O)CC2(C1)CS(=O)(=NC1CC1)C2 (stereo partly drawn) [Example 68-2]
> 10 µM	C[C@H](Nc1ncnc2c1cc(C1=CCS(=O)(=O)CC1)c(=O)n2C)c1cccc(C(F)(F)C#N)c1F [Example 41-1]
0.102 µM	CO[C@]1(c2cc3c(N[C@H](C)c4cccc(C(F)F)c4F)ncnc3n(C)c2=O)C[C@H](C)N(C(C)=O)C1 [Example 32-49]
0.0118 µM	COC1(c2cc3c(N[C@H](C)c4cccc(C(F)F)c4F)ncnc3n(C)c2=O)C[C@@H](C)N(C(C)=O)C1 (stereo partly drawn) [Example 32-37]
0.0716 µM	C[C@@H](Nc1ncnc2c1cc(C1CCC3(CC1)CS(=O)(=O)C3)c(=O)n2C)c1cccc(C(F)F)c1F [Example 33-2]
0.0879 µM	C[C@@H](Nc1ncnc2c1cc(C1(OC3CC3)CCS(=O)(=O)CC1)c(=O)n2C)c1cccc(C(F)F)c1F [Example 32-27]
0.0116 µM	C[C@@H](Nc1ncnc2c1cc(C1(C#N)CCS(=O)(=O)CC1)c(=O)n2C)c1cccc(C(F)F)c1F [Example 36-1]
0.0931 µM	COC1(c2cc3c(N[C@H](C)c4cccc(C(F)F)c4F)ncnc3n(C)c2=O)CC2CN(C(C)=O)C2C1 (stereo partly drawn) [Example 32-36]
0.044 µM	CC(=O)N1CC[C@](C#N)(c2cc3c(N[C@H](C)c4cccc(C(F)F)c4F)ncnc3n(C)c2=O)C1 [Example 36-10]
0.091 µM	C[C@@H](Nc1ncnc2c1cc(C1(C#N)CCN(S(C)(=O)=O)C1)c(=O)n2C)c1cccc(C(F)F)c1F (stereo partly drawn) [Example 36-4]
0.772 µM	C[C@@H](Nc1ncnc2c1cc(C1(C#N)CN(S(C)(=O)=O)C1)c(=O)n2C)c1cccc(C(F)F)c1F [Example 36-7]
0.335 µM	C[C@@H](Nc1ncnc2c1cc(C1CCN(S(C)(=O)=O)C1)c(=O)n2C)c1cccc(C(F)F)c1F (stereo partly drawn) [Example 33-10]
0.0101 µM	CO[C@]1(c2cc3c(N[C@H](C)c4cccc(C(F)F)c4F)ncnc3n(C)c2=O)CCN(C(C)=O)[C@@H](C)C1 [Example 32-31]
0.0412 µM	Cc1c(C(F)F)cccc1[C@@H](C)Nc1ncnc2c1cc(C1CCS(=O)(=O)CC1)c(=O)n2C [Example 33-5]

Same assay, conditions: Homo sapiens, PC-9, 1 h, read-out: SOS1 pERK IC50

SMILES	IC50
C[C@@H](Nc1ncnc2c1cc(C1(C#N)CCN(C3COC3)CC1)c(=O)n2C)c1cccc(C(F)F)c1F [Example 36-16]	0.222 µM
C[C@@H](Nc1ncnc2c1cc(C1(O)CCN(C)CC1)c(=O)n2C)c1cccc(C(F)F)c1F [Example 28-1]	0.187 µM

Same assay, conditions: PC-9 cells (EGFR Ex19Del), 1 hour incubation, AlphaLISA SureFire Ultra p-ERK1/2; read-out: SOS1 pERK IC50

SMILES	IC50
COC1(c2cc3c(N[C@H](C)c4cccc(C(F)F)c4F)ncnc3n(C)c2=O)CCS(=O)(=NC2CC2)CC1 (single isomer, unassigned) [Example 68]	0.201 µM
C[C@@H](Nc1ncnc2c1cc(C1(C#N)CCS(=O)(=NC3CC3)CC1)c(=O)n2C)c1cccc(C(F)F)c1F (stereo partly drawn) [Example 59, (1S,4s)-1-(cyclopropylimino)-4-(4-(((R)-1-(3-(difluoromethyl)-2-fluorophenyl)ethyl)amino)-8-methyl-7-oxo-7,8-dihydropyrido[2,3-d]pyrimidin-6-yl)hexahydro-1λ^6-thiopyran-4-carbonitrile 1-oxide]	0.0288 µM
C[C@@H](Nc1ncnc2c1cc(C1=CCS(=O)(=NC#N)CC1)c(=O)n2C)c1cccc(C(F)F)c1F (single isomer, unassigned) [Example 46]	0.0433 µM
COC1(c2cc3c(N[C@H](C)c4cccc(C(F)F)c4F)ncnc3n(C)c2=O)CCS(=O)(=NC2CC2)CC1 (single isomer, unassigned) [Example 69]	0.094 µM
C[C@@H](Nc1ncnc2c1cc(C1(C#N)CCS(=O)(=NC3CC3)CC1)c(=O)n2C)c1cccc(C(F)F)c1F (single isomer, unassigned) [Example 58]	0.271 µM
C[C@@H](Nc1ncnc2c1cc(C1CCS(=O)(=O)C1)c(=O)n2C)c1cccc(C(F)F)c1F (stereo partly drawn) [Example 33-21]	0.0522 µM

The next lines start with the values.

IC50	SMILES
0.121 µM	C[C@@H](Nc1ncnc2c1cc(C1(F)CCC3(CC1)CS(=O)(=NC1CC1)C3)c(=O)n2C)c1cccc(C(F)F)c1F (single isomer, unassigned) [Example 56-1]
0.494 µM	C[C@@H](Nc1ncnc2c1cc(C1CCS(=O)(=NC3CC3)CC1)c(=O)n2C)c1cccc(C(F)F)c1F (single isomer, unassigned) [Example 64-2]
0.0828 µM	C[C@@H](Nc1ncnc2c1cc(C13CCOCC1C3)c(=O)n2C)c1cccc(C(F)F)c1F (single isomer, unassigned) [Example 54-2]
1.2 µM	C[C@@H](Nc1ncnc2c1cc(C1CCP(C)(=O)CC1)c(=O)n2C)c1cccc(C(F)F)c1F (stereo partly drawn) [Example 33-22]
0.448 µM	C[C@@H](Nc1ncnc2c1cc(C1(C#N)CCP(C)(=O)CC1)c(=O)n2C)c1cccc(C(F)F)c1F (stereo partly drawn) [Example 36-12]
0.575 µM	C[C@@H](Nc1ncnc2c1cc(C1(N)CCP(C)(=O)CC1)c(=O)n2C)c1cccc(C(F)F)c1F (stereo partly drawn) [Example 31-11]
